# Experimental data reported in EP2123285A1, “Nucleosidic phosphoantigens for use in VGAMMA9DELTA2 T cell-mediated therapy” (INSERM (Institut National de la Santé et de la Recherche …, priority 2008, dated 2009).
# Entries after “also recorded” stand apart in the source; their conditions may differ. Like-named read-outs stand apart in the source and are kept apart here.
# How the values were obtained:
# [1] = system: polyclonal Vγ9Vδ2 T cell line; experiment: Degranulation assay for cytolytic function (CD107a), direct stimulation with soluble antigens; type: cell-based, human; details: for surface expression of CD107a (cytotoxicity machinery): soluble antigen, no enzyme added
# Description: (§1) Brefeldin A was omitted. […] Cells were washed twice in FACS medium and stained for TCR-Vδ2. Data were acquired and analyzed as for proliferation assay. Results are expressed as the mean of triplicate microwell cultures +/-S.E.M.
# [2] = target: T1, F1-ATPase purified from bovine heart mitochondria (Bos taurus, UniProt P00829+P19483); experiment: F1-ATPase activity, ATP bioluminescence assay; type: biochemical; details: 1µM ATP, 5min, ApppI added in the reaction mixture
# T1 construct: F1-ATPase purified from bovine heart mitochondria; from tissue; host or cells: bovine heart mitochondria
# Method: (§2) F1-ATPase complexes were recovered from ammonium sulfate precipitates by centrifugation (17000g, 3min) and dissolved in ATPase assay buffer (10mM HEPES, 150mM NaCl, 5mM KCl, 2mM MgCl2, pH 7.5). ATP and ADP were measured using two different assays. For ATP measurements, a bioluminescence assay was used: 100ng F1-ATPase were incubated at room temperature in 50µL of ATPase assay buffer containing 1µM ATP and the indicated apyrase-treated ApppI concentrations in white 96 wells plates. After 5 minutes, 30µL of reconstituted luciferase from the ATP CLSII Kit (Roche) were added and luminescence was acquired on an Orion luminometer (Berthold Detection Systems). The kinetics of ADP production resulting from ATP hydrolysis was measured using the lactate dehydrogenase/pyruvate kinase assay and was adapted from Gledhill, J.R. et al., Biochem J 386, 591-598, 2005: 2µg F1-ATPase were incubated in 200µL of ATPase assay buffer supplemented with phosphoenol pyruvate (500µM), NADH (250µM), lactate dehydrogenase (LDH, 1U) and pyruvate kinase (PK, 5U), with the indicated ATP concentrations and with or without 100µM apyrase-treated ApppI. OD340nm was measured during 2 minutes (with one measurement every 10 seconds) on a Varioskan Flash spectrophotometer (Thermo Electron Corporation). The initial hydrolysis rate (V0) was calculated from a linear regression of the data. […]
# [3] = system: polyclonal Vγ9Vδ2 T cell line; experiment: Degranulation assay (CD107a) with tumor cell lines as presenting or pulsed cells; type: cell-based, human; details: for stimulatory activity of pulsed 721.221 cells: 721.221 cell line; for pulsing of RPMI-8226 cells: 2h, 10µM; for sensitivity of stimulation by pulsed cells to apyrase and pyrophosphatase: Daudi or K562 cells pulsed overnight (pamidronate 50µM, ApppI 20µM), apyrase 0.2U/mL, NPP 0.02U/mL, alone or in combination
# apyrase = target: T2, apyrase (Solanum tuberosum, UniProt P80595); experiment: HPLC analysis of sensitivity to apyrase; type: in vitro ADME; details: 100µM, 0.2U/mL apyrase, 1h at 37°C in RPMI
# T2 sequence (P80595 1-454): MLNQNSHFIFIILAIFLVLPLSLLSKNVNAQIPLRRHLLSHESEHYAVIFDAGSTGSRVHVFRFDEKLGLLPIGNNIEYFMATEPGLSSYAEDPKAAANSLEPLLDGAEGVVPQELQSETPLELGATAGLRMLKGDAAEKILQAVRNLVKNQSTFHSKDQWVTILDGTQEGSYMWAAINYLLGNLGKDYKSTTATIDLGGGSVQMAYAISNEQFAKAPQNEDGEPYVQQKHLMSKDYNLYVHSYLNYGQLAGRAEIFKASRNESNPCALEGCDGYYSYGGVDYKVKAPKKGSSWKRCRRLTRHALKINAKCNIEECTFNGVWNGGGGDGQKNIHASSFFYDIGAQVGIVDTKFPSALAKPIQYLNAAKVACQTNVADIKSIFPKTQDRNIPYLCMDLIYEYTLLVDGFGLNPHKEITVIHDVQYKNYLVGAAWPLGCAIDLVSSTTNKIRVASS
# Method: Reaction mixes containing nucleosidic compounds were adjusted to 200µL with water and products were separated by HPLC (System Gold, Beckman Coulter) on a PL-SAX anion exchange column (1000Å, 5µm, 50x4.6mm from Polymer Labs Varian, Marseille, France) using water (A) and 1M (NH4)2HPO4, pH 3.5 (B) and the following elution gradient: 0-1 min: 0% B; 1-11 min: 0% to 30% B; 11-13 min: 100% B; 13-19min: 0% B. Eluted nucleotides were detected by monitoring UV absorbance at 260nm. In these conditions, adenosine and AMP are not retained on the column and are detected with the elution front. To evaluate phosphatase sensitivity, ApppI and ATP (100µM final concentration) were incubated for 1h at 37°C in 20µL RPMI in the presence of 0.2U/mL apyrase or 0.02U/mL nucleotide pyrophosphatase before analysis.
# [4] = target: T3, bovine F1-ATPase (in the form of F1Fo complexes) (Bos taurus, UniProt P00829+P19483); experiment: Pulsing on F1Fo-coated beads and subsequent T cell activation (CD107a); type: binding
# T3 construct: from tissue
# Method: as §1
# For immobilization on beads, solubilized F1Fo complexes were diluted to 1/3000 (5µg/mL) in 1 ml of PBS and incubated with 10^7 6µm polystyrene beads (Biovalley, Marne-la-Vallée, France) for 4h at room temperature on a rotating wheel. Beads were then pelleted by centrifugation (2min, 12000g), washed and incubated in 1mL of 1% BSA in PBS overnight, washed once with PBS and kept for several days at 4°C in PBS containing 1% BSA. Beads were used in stimulation assays as cultured cell lines. Control beads were prepared similarly except that F1Fo was replaced by BSA. In some experiments the beads were loaded with phosphoantigens: to this end, after washing a suitable aliquot, beads were incubated with ApppI or IPP (50µM) for 2 hours at 37°C in complete SFM medium, washed extensively, and used for Vγ9Vδ2 T cells stimulation. In phosphatase sensitivity assays (Fig.8) NPP or control medium were added to the beads in microculture wells 30min before pulsing the beads or addition of T cells. The beads were then washed and T cells were added with or without supplementation with the same phosphatases. T cell activation was evaluated as described above.
# Vγ9Vδ2 T cells [5] = experiment: Intracellular cytokine staining (IFNγ); type: cell-based, human
# [6] = target: T1, F1-ATPase purified from bovine heart mitochondria; experiment: F1-ATPase activity, kinetics of ADP production (lactate dehydrogenase/pyruvate kinase assay); type: biochemical; details: 100 µM ApppI, low ATP concentrations
# Method: as §2
# [7] = target: nucleotide pyrophosphatase (Crotalus adamanteus, UniProt J3SEZ3)
# Vγ9Vδ2 T cells [8] = experiment: Proliferation assay: Vγ9Vδ2 T cell expansion from PBL stimulated with phosphoantigen plus IL-2; type: cell-based, human
# Vγ9Vδ2 T cells [9] = experiment: Single cell analysis of calcium mobilization; type: cell-based, human; details: ApppI-loaded, F1-coated beads
smiles,measurement,setting,value
Nc1ncnc2c1ncn2[C@@H]1O[C@H](COP(=O)(O)OP(=O)(O)O)[C@@H](O)[C@H]1O [ADP],effect on T cell stimulations,[1]; data not shown,no effect
"Cc1nc(N=Nc2ccc(S(=O)(=O)O)cc2S(=O)(=O)O)c(COP(=O)(O)O)c(C=O)c1O [PPADS, pyridoxal phosphate-6-azophenyl-2',4'-disulfonic acid]",effect on ApppI stimulatory activity,[1]; PPADS added to ApppI stimulation,inhibition
same,effect on IPP stimulatory activity,[1]; PPADS added to IPP stimulation,partially decreases
"C=C(C)CCOP(=O)(O)OP(=O)(O)OP(=O)(O)OC[C@H]1O[C@@H](n2cnc3c(N)ncnc32)[C@H](O)[C@@H]1O [ApppI, 1-(adenosin-5'-yl) 3-(3-methylbut-3-enyl) triphosphoric diester]",increase of the amount of ATP hydrolyzed by the complex,[2],two-fold
same,effect of exogenous NPP on stimulatory activity,[1]; NPP 0.02U/mL added to the T cell stimulation assay,greatly increased
same,effect of apyrase on stimulatory activity,"[1]; apyrase 0.2U/mL, antigen 10µM",abrogates completely
same,surface expression of CD107a (cytotoxicity machinery),[1],less bioactive than IPP itself
same,stimulatory activity of pulsed 721.221 cells,[3],cannot be significantly pulsed; also recorded: poorly stimulatory
same,pulsing of RPMI-8226 cells,[3]; 4°C,abrogated
same,pulsing of RPMI-8226 cells,[3]; 37°C,sufficient to confer stable stimulatory activity
same,pulsing of RPMI-8226 cells,[3]; 37°C after 2h pre-treatment with cytochalasin D (10µM),abrogated
same,sensitivity of stimulation by pulsed cells to apyrase and pyrophosphatase,[3],completely resistant
same,stimulation by combination of RPMI-8226 cells and phosphoantigen,[3]; RPMI-8226 cells 1:1 ratio plus soluble antigen,synergistic activation
same,stimulatory activity retained on pulsed tumor cells after extensive washing,"[3]; tumor cell lines pulsed overnight, compared to tumor cells not washed",70%
same,HPLC profile after apyrase treatment,apyrase,did not change its HPLC profile
same,stimulatory activity of loaded F1-ATPase-coated beads,[4]; ApppI treated with NPP before pulsing on beads,no activity is retained
same,stimulatory activity of loaded F1-ATPase-coated beads,[4]; NPP 0.02U/mL added in the T cell stimulation assay,a strong stimulatory activity can be revealed
same,stimulatory activity of loaded F1-ATPase-coated beads,"[4]; beads incubated with 50µM antigen for 2h, washed, no NPP",confers some additional stimulatory activity
same,stimulatory activity of loaded F1-ATPase-coated beads,"[4]; beads treated with NPP after pulsing, then washed",retain an activity identical to that of beads which have not been treated with NPP
same,effect of ApppI added to IPP on the IPP response,Vγ9Vδ2 T cells [5]; IPP (10µM) plus ApppI at varying concentrations,does not compete with IPP
same,induction of intracellular IFN-γ production,Vγ9Vδ2 T cells [5]; PBL stimulation,could induce
same,higher concentration required for a similar cytokine response,"Vγ9Vδ2 T cells [5]; relative to IPP, intracellular IFNγ",50-100 fold
same,initial rate of ADP production relative to the rate in the absence of ApppI,[6],approximately twice
same,hydrolysis by NPP (HPLC),[7],can be hydrolyzed
same,homogeneity of the culture (Vγ9Vδ2 T cells),Vγ9Vδ2 T cells [8]; 5 µM,~94%
same,induction of proliferation,Vγ9Vδ2 T cells [8]; PBL stimulation,could induce
same,higher molar concentration required for a similar effect on Vγ9Vδ2 T cell expansion from PBLs,"Vγ9Vδ2 T cells [8]; relative to IPP, 1 week after PBL stimulation",5-10 fold
same,intracellular calcium mobilization,Vγ9Vδ2 T cells [9]; NPP 0.02U/mL added after contact,slow but strong and sustained calcium response
same,intracellular calcium mobilization,Vγ9Vδ2 T cells [9]; no NPP,clear activation in few cells only
"C=C(C)CCO[P@@](=O)(O)OP(=O)(O)O [IPP, isopentenyl pyrophosphate, reference compound]",surface expression of CD107a (cytotoxicity machinery),[1],stronger stimulation
same,stimulatory activity retained on pulsed tumor cells after extensive washing,[3],less than 20%
"CC[C@H](C)C(=O)O[C@H]1C[C@@H](C)C=C2C=C[C@H](C)[C@H](CC[C@@H]3C[C@@H](O)CC(=O)O3)[C@H]21 [lovastatin, reference compound]",effect on stimulatory activity induced by pulsing with ApppI,"[3]; K562 cells, lovastatin 20µM, ApppI 20µM, overnight",does not inhibit
same,effect on stimulatory activity induced by pamidronate,"[3]; K562 cells, lovastatin 20µM, pamidronate 50µM, overnight",efficiently abrogates
"Nc1ncnc2c1ncn2[C@@H]1O[C@H](COP(=O)(O)OP(=O)(O)OP(=O)(O)O)[C@@H](O)[C@H]1O [ATP, reference compound]",HPLC profile after apyrase treatment,apyrase,completely hydrolyzed
"NCCC(O)(P(=O)(O)O)P(=O)(O)O [pamidronate, reference compound]",stimulatory activity of pulsed 721.221 cells,[3],poorly stimulatory
same,sensitivity of stimulation by pulsed cells to apyrase and pyrophosphatase,[3],completely resistant
